Assays:
[1] = tested on: patient with erosive hand osteoarthritis; assay: Efficacy of topical treatment in one patient with erosive hand osteoarthritis (Example 6); assay type: in vivo, human; settings: 12 weeks
Description: After a wash-up period of several weeks, the patient started treatment with a topical formulation prepared as disclosed in example 3, with a dosage of about 10 mg daily per hand, spread on the affected zone for a period of 12 weeks.

[2] = tested on: patients with erosive hand osteoarthritis; assay: Clinical observational study of oral 10 mg montelukast daily in patients with erosive hand osteoarthritis (Example 4); assay type: in vivo, human; settings: 10 mg daily oral, 3 to 16 months
Description: A preliminary clinical observational study was performed in patients suffering from erosive hand osteoarthritis.
50 patients with erosive hand osteoarthritis which were non-respondent or with limited response after treatment with analgesics and/or anti-inflammatories were selected for the study. The patients were administered 10 mg of montelukast daily by the oral route, using an orally dispersible composition prepared as disclosed in Example 1, according to a once-daily dosage regimen.
The following parameters were used to evaluate the efficacy of the treatment: (i) improvement in clinical symptoms; (ii) efficacy in pain relief; and (iii) improvement in radiological evaluation. All assessments were focused on one of the hands of the patients.
The improvement in clinical symptoms was assessed by evaluating the improvement in symptoms such as functionality, stiffness and deformity of the affected hand that entail an improvement in the quality of life of the patients.
For assessing the efficacy in pain relief, the patients were asked to evaluate the pain they felt using the visual analogue scale (VAS) methodology, both before the treatment and at the end of the treatment period.
For assessing the efficacy of the treatment in the radiological parameters of the hand, the following features in the affected joints were evaluated: a) edema, b) subchondral erosions, c) synovitis and d) tenosynovitis. These features were radiologically assessed by means of posteroanterior radiographs of the hand, performed before and after the treatment period. The treatment was considered to provide radiological improvement if there was observable improvement in at least two of the assessed features and no worsening in the remaining features.

[3] = tested on: patients aged ≥6 years; settings: for example 200 mg/daily; cited from earlier work
[4] = tested on: patients with erosive hand osteoarthritis; assay: Clinical study of oral 20 mg montelukast daily in patients non-respondent to 10 mg (Example 5); assay type: in vivo, human
Description: For this study, 9 patients were selected from the previous study (Example 4) among those who were non-respondents to the treatment (10 mg montelukast daily).
In the present study, the patients were administered a daily dose of montelukast of 20 mg by the oral route, also using an orally dispersible composition prepared as disclosed in Example 1, according to a once-daily dosage regimen. The age of the patients ranged from 52 to 78 years.
As in the previous study, for assessing the efficacy in pain relief, the visual analogue scale (VAS) methodology was used, where the pain was assessed on a scale of 0 to 10.
For assessing the efficacy in hand functionality improvement, also a visual analogue scale (VAS) of 0 to 10 was also used, wherein 0 meant full functionality, i.e., full ability to hold objects, and 10 meant absence of functionality, i.e., inability to hold any object
The “initial” values mean the values before starting the treatment, and the “final” values mean the values after completing the treatment.

[5] = topical gel of example 3, about 10 mg daily per hand
[6] = 20 mg daily oral, beginning vs end of treatment

Q: Which results are given for `CCC(=O)O[C@]1(C(=O)COC(C)=O)CC[C@H]2[C@@H]3C[C@H](C)C4=CC(=O)C=C[C@]4(C)[C@H]3[C@@H](O)C[C@@]21C` [methylprednisolone aceponate]?
A: radiological assessment ([1]; topical, once daily): progression of the disease; pain score (VAS, 0-10 scale) remaining under treatment ([1]; topical, once daily, no improvement in pain relief): higher than 5

Q: With `CC(C)(O)c1ccccc1CC[C@@H](SCC1(CC(=O)O)CC1)c1cccc(/C=C/c2ccc3ccc(Cl)cc3n2)c1` [montelukast, 2-[1-[[(1R)-1-[3-[(E)-2-(7-chloroquinolin-2-yl)ethenyl]phenyl]-3-[2-(2-hydroxypropan-2-yl)phenyl]propyl]sulfanylmethyl]cyclopropyl]acetic acid] as the compound, how does the “additional patients with no worsening of the assessed radiological parameters” value [2] read?
A: 10 patients

Q: What about the “patients with improvement after radiological evaluation (at least two features improved, none worse)” value ([2]; of 50 patients, posteroanterior radiographs) of the same compound?
A: 28 patients

Q: And the “patients reporting effective pain relief (VAS reduction of at least 2 units on 0 to 10 scale)” value ([2]; out of 45 patients with pain before treatment)?
A: 28 patients

Q: And the “patients with improvement in edema” value ([2]; radiological evaluation)?
A: 19 patients

Q: What about the “patients with improvement in erosions” value ([2]; radiological evaluation) of the same compound?
A: 14 patients

Q: And the “patients with improvement in synovitis” value ([2]; radiological evaluation)?
A: 28 patients

Q: And the “patients with improvement in tenosynovitis” value ([2]; radiological evaluation)?
A: 18 patients

Q: And the “patients with improvement in clinical symptoms (functionality, stiffness, deformity)” value ([2]; once-daily, of 50 patients)?
A: 32 patients

Q: What about the “clinical symptoms of osteoarthritis” value [1, 5] of the same compound?
A: improvement in the clinical symptoms

Q: What about the pain relief [1, 5] of the same compound?
A: significant pain relief

Q: And the “adverse effects at high doses” value [3]?
A: does not cause adverse effects

Q: And the “proportion of patients not responding to 10 mg daily that showed pain relief” value ([4]; 20 mg daily oral)?
A: ~70%

Q: And the adverse effects reported ([4]; 20 mg daily oral, 9 patients)?
A: No adverse effects

Q: And the “improvement in hand functionality” value ([4]; 20 mg daily oral, all patients)?
A: 35%

Q: What about the “pain relief in the responding patients” value ([4]; 20 mg daily oral, almost 70% of the patients) of the same compound?
A: 55%

Q: What about the “final VAS hand functionality score, mean” value [4, 6] of the same compound?
A: 4.56±0.39

Q: And the “final VAS pain score, mean” value [4, 6]?
A: 3.89±0.54

Q: What about the “VAS hand functionality final, Min - Max” value ([4]; after completing 20 mg daily oral treatment, individual values) of the same compound?
A: 3-6

Q: And the “VAS pain final, Min - Max” value ([4]; after completing 20 mg daily oral treatment, individual values, scale 0 to 10)?
A: 1-6

Q: And the “VAS hand functionality final, Mean” value ([4]; after completing 20 mg daily oral treatment, scale 0 (full functionality) to 10 (absence))?
A: 4.56

Q: And the “VAS pain final, Mean” value ([4]; after completing 20 mg daily oral treatment, scale 0 to 10, 9 patients)?
A: 3.89

Q: And the “VAS hand functionality initial, Min - Max” value ([4]; before starting 20 mg daily oral treatment (baseline), individual values)?
A: 5-8

Q: And the “VAS pain initial, Min - Max” value ([4]; before starting 20 mg daily oral treatment (baseline), individual values, scale 0 to 10)?
A: 5-9

Q: What about the “VAS hand functionality initial, Mean” value ([4]; before starting 20 mg daily oral treatment (baseline), scale 0 (full functionality) to 10 (absence)) of the same compound?
A: 7.00

Q: And the “VAS pain initial, Mean” value ([4]; before starting 20 mg daily oral treatment (baseline), scale 0 to 10, 9 patients)?
A: 7.00

Reference: patent publication US12539296B2, “Montelukast for the treatment of erosive hand osteoarthritis” (MMC INTELLECTUAL PROPERTY INSTITUTE, S.L., priority 2018, dated 2026)
